Read-outs that look alike come from different tables or passages of the source.
Legend:
[1] = In vivo sinomenine metabolism, rat plasma; set-up: species or system female Lewis rats; settings: sinomenine 150 mg/kg intraperitoneally, blood after 30 minutes
Experimental: (§1) More particularly, to study its metabolism in vivo, sinomenine was injected intraperitoneally into female Lewis rats at a concentration of 150 mg/kg body weight. Blood was taken after 30 minutes from the rat tail vein and plasma samples were prepared from the blood samples via standard techniques. In a parallel study, MRL-1 pr mice were injected intraperitoneally with either sinomenine at a concentration of 100 mg/kg body weight or physiological saline. Mouse urine was collected over a period of 24 hours.
(§2) The collected samples of rat blood and mouse urine from each of these studies were split so that testing could be performed immediately and after storage at −20° C. for one week. HPLC and GC/MS analysis was performed and there were no statistically significant differences in the results obtained from the immediately tested and the frozen samples.
(§3) A metabolite peak with the same relative retention time as the major metabolite isolated after incubation of sinomenine and NADPH generating solution with rat microsomes or human liver microsomes was obtained upon analysis of the rat blood and mouse urine samples. […] FIGS. 9A-B show HPLC chromatograms run on urine samples obtained from mice treated with saline (FIG. 9A) or with sinomenine (FIG. 9B). […]

[2] = Water solubility inferred from retention on lipophilic reversed-phase HPLC column; assay type: physicochemical; settings: evidenced by shorter retention time on lipophilic reversed-phase HPLC column
Source text: This characteristic of the novel compound results in a different oral bioavailability, pharmacokinetic profile, and organ distribution pattern than the known compound and also leads to ease in creating formulations for therapeutic use.
An HPLC system was also used for analysis of the sinomenine metabolism end products. For analytical HPLC, sinomenine and its metabolites were separated on a 250×4 mm LiChroCart column filled with endcapped Supersphere RP-18 material of 5 μm particle size and 100 Å pore width (Merck, Darmstadt, Germany).
The metabolite was prepared as described in Example 1. The samples were centrifuged (2000 g, 2 minutes) and 100 μl of the supernatant was injected into the analytical HPLC system. A control sample was prepared by the method described in Example 1 except that sinomenine and liver microsomes were incubated with an equal amount of phosphate buffer instead of with the NADPH generating solution. An HPLC run of the control sample was also made. The flow rate for the HPLC was set at 1 ml/min and the UV detection wavelength was 234 nm. The analytical column was kept at room temperature.
Sinomenine and its metabolites were isocratically eluted from the column with a mobile phase of 9.0/9.0/12.0/70.0 v/v/v/v methanol/acetonitrile/0.2 M sodium acetate/water, pH 5.5. The various fractions were quantified based on an external sinomenine calibration curve. […]

[3] = tested on: interleukin-2 (IL-2) synthesis in OKT3-stimulated PBMCs; assay: OKT3-stimulated human peripheral blood mononuclear cell assay, IL-2 secretion by ELISA; assay type: cell-based; settings: for IC50: OKT3 (1 μg/l) for 14 hours, curve fit, three independent experiments, read-out: IC50 of inhibition of IL-2 synthesis
Experimental: In an OKT3-stimulated human peripheral blood mononuclear cell assay, the relative biological activities of sinomenine and N-demethyl-sinomenine were tested.
The OKT3-stimulated human peripheral blood mononuclear cell assay was performed as described in Liu, L. et al., Inhibition of Lymphocyte Proliferation by the Anti-Arthritic Drug Sinomenine, Int. J. Immunopharmac., 16(8):685-691, (1994). Human Peripheral Blood Mononuclear Cells (PBMCS) were isolated from heparinized blood drawn from healthy adults. After separation from other blood components by density gradient centrifugation on Ficoll-hypaque (Biochrom, Berlin, Germany), the PBMCs were suspended in RPMI 1640 medium/10%FCS (RPMI 1640 medium with L-glutamine and nonessential amino acids: Gibco (Eggenstein, Germany); fetal calf serum (FCS): PAA Biologics (Marburg, Germany)).
The PBMCs (10^5 cells in a total volume of 150 μl per well) were activated by incubation with the monoclonal anti-T-cell receptor/CD3 complex antibody OKT3 (1 μg/l) for 14 hours. During this incubation, either sinomenine or N-demethyl-sinomenine was present in each of the main experimental wells at concentrations ranging from 10^−8 to 10^−3 M, as indicated on the x-axes of the graphs of FIGS. 10A and 10B. Control wells containing neither sinomenine nor its major metabolite were also prepared. The concentration of secreted IL-2 in the supernatants of activated PBMCs was determined using a commercial ELISA kit (Immunotech, Hamburg, Germany) following the manufacturer's instructions. In each of FIGS. 10A-B, the mean and standard error of three independent experiments are shown.
FIG. 10A presents the results for inhibition of IL-2 secretion by sinomenine. The concentration of IL-2 production, as a percentage of the control (100% equalled 1135 pg/ml, in this instance), was plotted against the molar concentration of sinomenine for each data point. The curves depicted were generated by a curve fit computer program (Microcal Origin Version 3.5). […]

human liver microsomes = assay: Incubation of sinomenine with human liver microsomes and NADPH generating system, HPLC/UV; assay type: in vitro ADME
Experimental: The livers of male Sprague Dawley rats, treated with dexamethasone for two days, and human liver specimens provided the sources for the starting material. Liver microsomes were prepared using standard centrifugation techniques as described by Guengerich (Guengerich, F. P., et al., Microsomal Enzymes Involved in Toxicology-Analysis and Separation, In: Principles and Methods in Toxicology (Ed. Hayes A W), pp. 609-637, Raven Press, New York, (1982)) with some modifications. Specifically, phosphate buffer was used instead of TRIS buffer and microsomes were stored at −80° C. The protein concentration was determined using a bicinchoninic acid assay (Redingbaugh, M. G., et al., Adaptation of the Bicinchoninic Acit Protein Assay for Use With Microtiter Plates and Sucrose Gradient Fractions, Anal. Biochem., 153:267-271, (1986)) and adjusted with 0.1 M potassium phosphate buffer, pH 7.4, to 3 g/l. […]
The presence of sinomenine and N-demethyl-sinomenine over time in the presence of microsomes and an NADPH generating solution were determined by HPLC and ultraviolet (UV) analysis. […]
For the HPLC analysis, a 250×4 mm analytical column was prepared with endcapped C18 material of 5 μm particle size. […] Sinomenine and its metabolites were detected with a UV wavelength of 234 nm. […]

[4] = In vivo sinomenine metabolism, mouse urine; set-up: species or system MRL-1 pr mice; settings: sinomenine 100 mg/kg intraperitoneally, urine collected over 24 hours
Experimental: as §1, §2, §3

Lymphocyte proliferation = settings: in vitro; cited from earlier work
[5] = in vivo; cited from earlier work

SMILES | detection as metabolite in plasma [1] | water solubility relative to sinomenine [2] | IC50 [3] | biological activity (IL-2 inhibition IC50) relative to sinomenine ([3]; same assay, relative to sinomenine) | share of all sinomenine metabolic products (human liver microsomes; believed to represent) | detection as metabolite in urine [4] | effect on lymphocyte proliferation (Lymphocyte proliferation) | side effects [5] | IC50 ([3]; Homo sapiens, PBMC) | amounts of sinomenine and its major metabolite (human liver microsomes; 120 minutes after the start of the reaction, human liver microsomes)
COC1=C[C@H]2[C@H]3Cc4ccc(OC)c(O)c4[C@@]2(CCN3)CC1=O [N-demethyl-sinomenine] | detected as a metabolite | greater water solubility | 20 µM | approximately five | approximately 90% | detected as a metabolite | – | – | – | –
COC1=C[C@@H]2[C@@H]3Cc4ccc(OC)c(O)c4[C@]2(CCN3C)CC1=O [sinomenine, reference compound] | – | – | – | – | – | – | inhibited by sinomenine in a reversible manner without exhibiting direct cytotoxic effects | minor side effects such as mild pain, cough, and diarrhea | 100 µM | approximately equal amounts
